Results reported in patent US20260235618A1, “MICROBEADS WITH RATIOMETRIC LANTHANIDE ENCODING FOR DRUG SCREENING” (CZ Biohub SF, LLC, priority 2022, published 2026).
“Also recorded” adds a separate entry of the source.

Biological target: Cdc20 (Homo sapiens, UniProt Q12834)
Test: Multiplexed binding assay of Cdc20 to peptides on spectrally encoded beads, with and without small molecule (per-bead fluorescence of labeled antibody)
Settings: bead-bound D-Box peptides; per-bead fluorescence intensity of fluorescently-labeled antibody recognizing bound Cdc20; vs control without Apcin (FIG. 2)
Text: FIG. 2 provides data illustrating the effect of the small molecule Apcin on the binding between Cdc20 and different peptide sequences. Binding was quantified by measuring the per-bead fluorescence intensity of a fluorescently-labeled antibody that recognizes bound Cdc20. […] The control is the left bar for each of the peptides.
In one illustrative assay, a library of peptide-bound microbeads is generated by synthesizing binding site peptides directly on microbeads. Beads are pooled and then incubated with the protein of interest in the presence or absence of a modulator or candidate biding agent. The beads are then typically washed and the amount of signal from a label directly or indirectly attached to the protein of interest that is bound to each bead is determined. […]
For illustration, binding site peptides can be from proteins that are binding partners of any protein of interest, e.g., a signaling protein. […] In some embodiments, such a bead, or pool of such beads, is deposited in a compartment, e.g., a microwell plate such as a 96-well plate, with a signaling protein and a candidate agent to be evaluated, such as a small molecule. […] Use of multiple peptide sequences (e.g., for different binding sites or different affinities) can serve as an internal control and provide the ability to quantitatively assess a loss of signal without concerns regarding assay quality (e.g., FIG. 2). […]

Chain of Cdc20 (Q12834 whole entry, species assumed): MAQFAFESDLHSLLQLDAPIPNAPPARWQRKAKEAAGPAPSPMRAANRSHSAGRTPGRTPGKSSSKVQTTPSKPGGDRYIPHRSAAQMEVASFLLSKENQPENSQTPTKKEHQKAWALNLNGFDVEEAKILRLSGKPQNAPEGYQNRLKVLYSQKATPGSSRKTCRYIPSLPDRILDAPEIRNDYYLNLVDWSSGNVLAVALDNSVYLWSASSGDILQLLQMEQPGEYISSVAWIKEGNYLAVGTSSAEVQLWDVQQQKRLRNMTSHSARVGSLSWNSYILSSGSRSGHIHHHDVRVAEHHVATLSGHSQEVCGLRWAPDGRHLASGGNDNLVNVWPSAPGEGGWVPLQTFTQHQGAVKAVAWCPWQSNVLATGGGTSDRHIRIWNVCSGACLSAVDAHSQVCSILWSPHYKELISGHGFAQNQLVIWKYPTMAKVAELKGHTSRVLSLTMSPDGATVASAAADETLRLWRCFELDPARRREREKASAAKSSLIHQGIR

Compound: Cc1ncc([N+](=O)[O-])n1CCOC(=O)NC(Nc1ncccn1)C(Cl)(Cl)Cl (stereo not shown) [Apcin]
- Effect on binding between Cdc20 and D-Box-containing peptide sequences: blocks the binding site between Cdc20 and D-Box-containing sequences; also recorded: selectively prevented the binding of Cdc20 to D-Box-containing peptides
